# Like-named read-outs stand apart in the source and are kept apart here.
# Experiments:
# [1] = Atogepant-itraconazole interaction study: safety and tolerability; type: in vivo, human; details: itraconazole alone
# From the text: The primary objective of this study was to assess the effects of multiple dose itraconazole on the pharmacokinetics of a single dose of atogepant. The primary endpoints were PK parameters of atogepant derived from plasma concentrations. The secondary objectives of the study were to assess the safety and tolerability of atogepant and itraconazole given alone and in combination, and to establish the correlation between concentrations of atogepant in dried blood sample (DBS) (obtained via finger stick) and plasma. The secondary endpoints included AEs, clinical laboratory parameters, vital signs, ECG, and physical examination, and correlation of concentrations of atogepant in DBS and plasma. Subjects who satisfied the inclusion and exclusion criteria were assigned to a single fixed-treatment sequence in which they received Treatment A followed by Treatment B; there was a 7-day washout period between treatments. • Treatment A: Single oral 60 mg dose of atogepant (tablet) under fasted conditions on Day 1 • Treatment B • Days 8-14: Itraconazole 200 mg (tablet) orally once daily under fed conditions. • Day 15: Itraconazole 200 mg coadministered with atogepant 60 mg (tablet) under fasted conditions. • Days 16 to 17: Itraconazole 200 mg (tablet) once daily under fed conditions.
# [2] = Atogepant-quinidine gluconate interaction study: safety; type: in vivo, human; details: during quinidine gluconate administration; 33 enrolled
# From the text: Atogepant PK parameters calculated were peak plasma concentration (Cmax); time to Cmax (tmax); and area under plasma concentration—time curve from time 0 to time t (AUC0-t) and infinity (AUC0-∞). […] Safety assessments included clinical laboratory values, vital signs, electrocardiograms, and […] adverse events (TEAEs).
# [3] = Atogepant-topiramate interaction study, cohort 2: topiramate steady-state PK; type: in vivo, human; details: for AUC / Cmax: both sexes, human, plasma
# Method: An open-label, single-center, multiple-dose 2-cohort, phase 1 trial was carried out to assess the potential of a PK DDI between atogepant and topiramate in healthy adult participants. Eligible participants were enrolled either in cohort 1 to evaluate the effect of topiramate 100 mg twice daily on the PK of atogepant […] once daily or in cohort 2 to evaluate the effect of atogepant 60 mg once daily on the PK of topiramate 100 mg twice daily. Participants in cohort 1 received atogepant alone on days 1-7 and atogepant plus topiramate on days 8-17. Participants in cohort 2 received topiramate alone on days 1-10 and topiramate plus atogepant on days 11-17.
# The duration of the study was 25 days (±2 days), which included day −1 through the follow-up visit and excluded the screening period. The screening period was up to 21 days before day 1 and the intervention period was a total of 19 days, at which point the end of dosing visit was conducted. Cerebrospinal fluid (CSF) samples for measurement of atogepant concentration were collected via lumbar puncture in a subset of consenting participants in cohort 1. CSF samples were collected once from individual participants in the CSF collection subset at 2 or 6 hours after the morning dose on day 6 for cohort 1. Clinical laboratory tests were performed at the follow-up visit, which was conducted on day 24 (7 [±2] days after the last dose of study medication.
# Participants were excluded if they had clinically significant abnormal electrocardiogram (ECG) results or QT prolongation (QTcF ≥450 msec for males, ≥470 for females), or any clinical condition or previous surgery that may affect the absorption, distribution, biotransformation, or excretion of atogepant or topiramate.
# The primary endpoints were area under the plasma concentration-time curve during dosing interval at steady state (AUC0-tau,ss) and maximum plasma drug concentration at steady state (Cmax,ss) of atogepant and topiramate when coadministered and when administered alone. Additional PK parameters included time of maximum plasma drug concentration at steady state (Tmax,ss), average plasma drug concentration at steady state (Cavg,ss), and minimum plasma drug concentration at steady state (Cmin,ss) of topiramate and atogepant when coadministered and when administered alone.
# [4] = Atogepant-topiramate interaction study: safety and tolerability; type: in vivo, human
# [5] = topiramate; cited from earlier work
# [6] = topiramate 100 mg BID + atogepant 60 mg QD, day 17
# [7] = topiramate 100 mg BID alone, day 10
# [8] = with atogepant coadministration
compound,measurement,setting,value
"CCC(C)n1ncn(-c2ccc(N3CCN(c4ccc(OCC5COC(Cn6cncn6)(c6ccc(Cl)cc6Cl)O5)cc4)CC3)cc2)c1=O (stereo not drawn) [itraconazole, reference compound]",subjects experiencing constipation (TEAE),[1],1 subject
same,subjects experiencing headache (TEAE),[1],2 subjects
"C=C[C@H]1C[N@@]2CC[C@H]1C[C@@H]2[C@@H](O)c1ccnc2ccc(OC)cc12 [quinidine gluconate, reference compound]",participants discontinued because of TEAEs (all electrocardiogram QT prolongation),[2],10
CC1(C)O[C@@H]2[C@@H](CO[C@@]3(COS(N)(=O)=O)OC(C)(C)O[C@@H]23)O1 [topiramate],AUC,"[3]; 100 mg, Topiramate Alone, read-out: AUC0-tau,ss Geometric LSM",74400 ng·h/mL
same,Cmax,"[3]; 100 mg, Topiramate Alone, read-out: Cmax,ss Geometric LSM",7500 ng/mL
same,AUC,"[3]; 100 mg, topiramate 100 mg BID alone, day 10, read-out: AUC0-tau,ss",76500 ng·h/mL
same,Cmax,"[3]; 100 mg, topiramate 100 mg BID alone, day 10, read-out: Cmax,ss",7700 ng/mL
same,AUC,"[3]; Topiramate and Atogepant, read-out: AUC0-tau,ss Geometric LSM",70300 ng·h/mL
same,Cmax,"[3]; Topiramate and Atogepant, read-out: Cmax,ss Geometric LSM",7000 ng/mL
same,AUC,"[3]; topiramate 100 mg BID + atogepant 60 mg QD, day 17, read-out: AUC0-tau,ss",72600 ng·h/mL
same,Cmax,"[3]; topiramate 100 mg BID + atogepant 60 mg QD, day 17, read-out: Cmax,ss",7300 ng/mL
same,"delay of median Tmax,ss of topiramate",[3]; coadministered with atogepant,30 min
same,"Cavg,ss",[3]; [6],6.0 µg/mL
same,"Cmin,ss",[3]; [6],4.7 µg/mL
same,"Tmax,ss (median)",[3]; [6],2.0 h
same,"Cavg,ss",[3]; [7],6.4 µg/mL
same,"Cmin,ss",[3]; [7],5.2 µg/mL
same,"Tmax,ss (median)",[3]; [7],1.5 h
same,"reduction of topiramate AUC0-tau,ss",[3]; [8],5%
same,"reduction of topiramate Cmax,ss",[3]; [8],6%
same,"Deaths, %","[4]; cohort 2, topiramate + atogepant (n = 24)",(0) %
same,"Deaths, %","[4]; cohort 2, topiramate alone (n = 25)",(0) %
same,"TEAEs leading to discontinuation, %","[4]; human, in vivo",(8.0) %
same,"TESAEs, %","[4]; human, in vivo",(0) %
same,"Treatment-related TEAEs, %","[4]; human, in vivo",(52.0) %
same,"Treatment-related TESAEs, %","[4]; human, in vivo",(0) %
same,constipation reported,"[4]; human, in vivo",2 participants
same,nausea reported,"[4]; human, in vivo",3 participants
same,"TEAEs, %","[4]; human, in vivo, 10 days",(64.0) %
same,elimination half-life,[5],approximately 21 hours

# Source: patent US12350259B2, “Methods of treating migraine” (Allergan Pharmaceuticals International Limited, priority 2021, dated 2025)
